From patent publication US11576914B2, “Drug for treating or preventing disorder caused by TGF-β signaling, and application thereof” (THE DOSHISHA, priority 2017, dated 2023)

Key:
[1] = system: human corneal endothelial cells; assay: Cell Titer-Glo Luminescent Cell Viability Assay in the presence of AKP-001; type: cell-based; conditions: 24 hours
Method: Human corneal endothelial cells were peeled off with Descemet's membranes from research-purpose donor corneas, followed by culturing. For the medium, the following was used: OptiMEM-I (invitrogen, 31985-088)+8% FBS (Thermo, SH30084.03)+5 ng/mL epidermal growth factor (invitrogen, PHG0311)+20 μg/mL L-ascorbic acid 2-sesquimagnesium phosphate hydrate (SIGMA, A8960)+200 mg/L calcium chloride dihydrate (SIGMA, C7902)+0.08% chondroitin sulfate (Wako Pure Chemical Industries, Ltd., 032-14613)+50 μg/mL gentamicin (invitrogen, 15710-064)+1 μM SB431542 (WAKO, 192-16541)+10 μM SB203580 (Cayman, 13067). Culture dishes pre-coated with laminin-511E8 (Nippi, 381-07363) were used.
Cultured human corneal endothelial cells were seeded at a rate of 1×10^4 per well in a 96-well plate coated with laminin-511E8, and the cells were cultured until reaching confluence at 37° C. (5% CO2). For the medium, used was OptiMEM-I (invitrogen, 31985-088)+8% FBS (Thermo, SH30084.03)+5 ng/mL epidermal growth factor (invitrogen, PHG0311)+20 μg/mL L-ascorbic acid 2-sesquimagnesium phosphate hydrate (SIGMA, A8960)+200 mg/L calcium chloride dihydrate (SIGMA, C7902)+0.08% chondroitin sulfate (Wako Pure Chemical Industries, Ltd., 032-14613)+50 μg/mL gentamicin (invitrogen, 15710-064)+1 μM SB431542 (WAKO, 192-16541)+10 μM SB203580 (Cayman, 13067).
Upon reaching confluence, the culturing was further conducted for one more week with OptiMEM-I (invitrogen, 31985-088)+8% FBS (Thermo, SH30084.03)+20 μg/mL+200 mg/L calcium chloride dihydrate (SIGMA, C7902)+0.08% chondroitin sulfate (Wako Pure Chemical Industries, Ltd., 032-14613)+50 μg/mL gentamicin (invitrogen, 15710-064). […]
The medium was discarded to 50 μl per well, and Cell Titer-Glo Luminescent Cell Viability Assay solution (Promega, G7572) was added to the 50 μl/well to reach 1:1 with the medium. […] After standing, 50 μl was transferred to an Assay plate (Corning, 3912, Assay plate well, white polystyrene), and the […] was measured using GloMax-Multi Detection System (Promega, E7051).

corneal endothelium = assay: Histological analysis of the corneal endothelium after instillation; type: in vivo
Excerpt: Rabbits were euthanized, and then their eyes were removed and histologically analyzed. Expression of markers related to corneal endothelial functions was confirmed by immunostaining. The sclerocornea fragments were fixed with 0.5% paraformaldehyde and then blocked with 1% bovine serum albumin. As primary antibodies, ZO-1 antibody (Life Technologies) and N-cadherin antibody (BD Biosciences), which are indicators of the barrier function of corneal endothelial cells, and Na^+/K^+-ATPase antibody (MILLIPORE), which is an indicator of pump functions, were added, followed by standing at 4° C. overnight. […] Further, nuclear staining was performed using DAPI (Dojindo). To observe the cell morphology, actin was stained using Phalloidin (Life Technologies). The stained sclerocornea fragments were mounted in slide glasses and observed using a confocal fluorescence microscope (TCS SPE, Leica).
In addition, rabbits were euthanized, and then their eyes were removed. To assess cell death, the sclerocornea fragments were stained with Annexin V (Zymed Laboratories) and PI (Zymed Laboratories), fixed with 0.5% paraformaldehyde, and nuclear stained with DAPI (Dojindo). The stained sclerocornea fragments were mounted in slide glass and observed using a confocal fluorescence microscope (TCS SPE, Leica). Staurosporine (10 μM, Merck Millipore) was administered into the anterior chamber of a rabbit eyeball, and after 24 hours, it was used as a positive control.

[2] = system: immortalized human corneal endothelial cells (iHCEC); assay: Cell damage by ER stress induced by thapsigargin; type: cell-based; conditions: 24 hours pretreatment, 20 μM thapsigargin 3 hours
Method: The medium was removed from a culture dish in which immortalized human corneal endothelial cells (iHCEC) were being cultured, and the cells were supplemented with 1×PBS (−) that was preheated to 37° C., and were washed. This operation was repeated twice. The cells were supplemented again with 1×PBS (−) and incubated for 5 minutes at 37° C. (5% CO2). After removing the PBS (−), the cells were supplemented with 0.05% Trypsin-EDTA (Nacalai Tesque, 32778-34) and incubated for 5 minutes at 37° C. (5% CO2). The cells were then suspended in a medium, and collected by centrifugation at 1500 rpm for 3 minutes. DMEM (Nacalai Tesque, 08456-36)+10% FBS (Biowest, S1820-500)+1% P/S (Nacalai Tesque, 26252-94) was used as the medium. Immortalized human corneal endothelial cells (lot: iHCEC1-1) were seeded on a 12-well plate at a ratio of 8×10^4 cells per well and cultured for 48 hours at 37° C. (5% CO2) while using DMEM+10% FBS+1% P/S as the medium. The medium was then removed, and each inhibitor was added to culture the cells for 24 hours using DMEM+2% FBS+1% P/S as the medium. The medium was then removed. A medium (DMEM+2% FBS+1% P/S) containing 20 μM thapsigargin (Wako, 209-17281) and AKP-001 was added to culture the cells for 3 hours. Then, the cell morphology and apoptosis were observed using a phase contrast microscope.

## O=C(Cc1c(F)cccc1Cl)Nc1onc(-c2ccc(F)cc2)c1-c1ccncn1 [AKP-001, 5-[(2-chloro-6-fluorophenyl)acetylamino]-3-(4-fluorophenyl)-4-(4-pyrimidinyl)isoxazole]
[1]; 0.1 μM, 0.3 μM, 1 μM, 3 μM or 10 μM
  cell damage (cell viability): no cell damage was observed
[1]; 30 μM and 100 μM
  number of the cells (cell viability): significantly reduced the number of the cells
[1]
  concentrations at which less toxic to the cells: less than 30 μM
Corneal endothelium; eyeball instilled 10 times
  N-cadherin immunostaining: Expression along the cell membrane
  Na+/K+-ATPase immunostaining: Expression along the cell membrane
  ZO-1 immunostaining: Expression along the cell membrane
  actin staining, form of the corneal endothelium: polygonal paving stones
Corneal endothelium; rabbit, in vivo
  Annexin V and PI staining (cell death): Neither staining with Annexin V nor PI was observed
[2]
  damage to the corneal endothelial cells: suppression of damage to the corneal endothelial cells was observed
